A value given as a limit tells only on which side of the number the result lay.

Assay [1] deals with pPAK and pBAD in p190-BCR-ABL Ba/F3 cells. Kind of assay: Immunoblot for pPAK(T423) and pBAD(S136). The format is cell-based, murine. As to conditions: 3 μM, within minutes of cell exposure.
For assay [2], the system named is wild-type murine BM leukemic cells expressing p190-BCR-ABL. The experiment in a line: Colony formation assay (CFU-proB). The format is cell-based. The protocol: FIG. 14: IODVA1 targets Vav3 in vitro and in vivo. (A) Ba/F3 cells expressing empty vector Mieg3 or p190-BCR-ABL1 were treated with vehicle control or IODVA1 (IO1, 3 μM) for 30 min and incubated with GST-Rac and glutathione beads. Beads were washed and the protein complexes were separated on SDS-PAGE and immunoblotted for pVav3. Input Vav3 was used as control. (B) Binding affinity (Kd) between IODVA1 and Vav3 (green), LARG (brown), and RacGDP (blue). […] Error bars=SD; N=3. (C) Quantification of the average number of colonies made by bone marrow wild-type (black) and Vav3^−/− (lilac) p190-BCR-ABL1 leukemic cells treated with vehicle control or IODVA1 (IO1, 1 and 3 μM) (* p≤0.05; ** p≤0.01; *** p≤0.001; ns, not significant). […] (E) Quantification by densitometry of the pVav3 band from FIG. 14A. […]
B-cell lineage colony-forming units (CFU-proB) were quantified post 9-day culture of leukemic BM cells or sorted for p190-BCR-ABL-expressing B-cell progenitors in M3134 methylcellulose (StemCell Technologies) supplemented with 30% FBS (for mouse B lymphoid colony forming cells; StemCell Technologies), […] L-glutamine (Invitrogen), 1% penicillin-streptomycin (Invitrogen), 100 μM β-mercaptoethanol (Fisher-Scientific), 1% BSA (Sigma-Aldrich), 20 ng/mL of recombinant mouse IL-7 (PeproTech), and 100 ng/mL of recombinant mouse SCF (PeproTech).

For another assay, the target named is p50GAP (Homo sapiens, UniProt Q07960). The experiment in a line: p50GAP-stimulated GTP-hydrolysis, stopped-flow. The format is biochemical.
For assay [3], the system named is MDA-MB-231 triple negative breast cancer xenografts. Kind of assay: MDA-MB-231 orthotopic xenograft mouse model. The format is in vivo, mice. The text has this: FIG. 8: IODVA1 inhibits tumor growth of human breast and lung cancer xenografts. […] (B) Tumors were also stained for Ki67 as a proliferation marker (top panel). […] (C) Quantification of Ki67-positive and cleaved caspase 3-positive cells of tumors shown in (B). […] Animals began treatment when tumors became detectable at 10 days post-injection (*, p<0.05). […] IODVA1 treated tumors also had fewer proliferating cells compared to control vehicle treated animals, as determined by immunohistochemical staining for Ki67 (bottom) and increased intratumoral fibrosis. Representative images were taken at 100× magnification, scale bar is 200 μm. (F) Quantification of Ki67+ cells in control and IODVA1 treated tumors shown in (E).
To examine if the ability of IODVA1 to reduce oncogene-driven cell proliferation can be translated in vivo, applicants tested its efficacy on one breast cancer and one lung cancer xenograft mouse model. The breast cancer model utilizes the human triple negative breast cancer MDA-MB-231 cells. Cells were orthotopically injected into the right and left inguinal mammary glands of immunodeficient female mice. Tumor-bearing mice then received an intraperitoneal (IP) injection of 250 μL of […] IODVA1 every other day, for an average dose of 3.5 mg/kg. Dosage regimen was not optimized, and it is expected that better results are obtained if IODVA1 dosage is increased. […]
For xenograft studies, 1×10^6 MDA-MB-231 cells were suspended in PBS and injected into each inguinal mammary fat pad of nulliparous, 10-week old female athymic nude mice. Tumors were measured weekly with digital calipers and volume was calculated as [(π/6))×L×W^2] […] At necropsy, the mice were weighed and the tumors were excised, measured, weighed, fixed in 4% paraformaldehyde, and embedded in paraffin. Peripheral blood was collected by cardiac puncture and analyzed with a Hemavet (Drew Scientific, Miami Lakes, Fla., USA) for complete blood counts. […]

Sequence of p50GAP (Q07960 whole entry): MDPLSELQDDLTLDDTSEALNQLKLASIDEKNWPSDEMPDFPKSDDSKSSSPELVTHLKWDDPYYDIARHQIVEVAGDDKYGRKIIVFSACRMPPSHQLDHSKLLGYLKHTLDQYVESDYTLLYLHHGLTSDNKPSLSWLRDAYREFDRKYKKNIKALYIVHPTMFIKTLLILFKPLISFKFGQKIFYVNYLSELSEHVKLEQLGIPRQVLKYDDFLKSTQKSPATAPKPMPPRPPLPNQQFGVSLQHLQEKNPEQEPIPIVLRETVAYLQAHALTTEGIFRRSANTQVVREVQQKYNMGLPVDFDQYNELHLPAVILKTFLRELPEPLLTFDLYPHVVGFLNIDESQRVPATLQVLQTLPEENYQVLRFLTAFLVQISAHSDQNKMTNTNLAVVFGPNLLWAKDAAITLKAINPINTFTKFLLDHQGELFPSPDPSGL

For `OC1(c2ccccn2)N=C(Nc2nc3ccccc3[nH]2)N=C1c1ccccn1` (centres unmarked) [IODVA1, (Z)-2-((1H-benzo[d]imidazol-2-yl)imino)-4,5-di(pyridin-2-yl)-2,5-dihydro-1H-imidazol-5-ol], in assay [1], the “inhibitory phosphorylation of BAD Ser136” value was “decreases” and the pPAK result is on record as “decreases”. For the same compound, the “decrease in number of colonies (average)” value in assay [2] (1 μM) is on record as 3 folds. Further, the “decrease in number of colonies (average)” value in assay [2] (3 μM) is given as 7 folds. The “stimulation of the activity of p50GAP” value on p50GAP is “does not stimulate”. For the same compound, the “decrease of tumor volume compared to vehicle-treated control mice” value in assay [3] (IP, average dose of 3.5 mg/kg, four weeks post treatment) was ≥ 50%. Also, in assay [3] (after four weeks treatment), the “apoptosis, cleaved caspase-3 stained tumor sections” value was “significant increase” and the “cell proliferation, Ki-67 stained tumors” value is given as “did not reveal a statistical change”.

The record behind these values is patent US11564913B2, “Compositions and methods for treating cancer” (Children's Hospital Medical Center, priority 2019, dated 2023).
